The test system of data set [1] is EAE NOD mice. Description: EAE in NOD mice, progressive phase (clinical score, histopathology, body weight). It counts as in vivo. The note with it: NOD EAE; i.c.v. 1×10^7 IU lentivirus at day 35.
In data set [2] the test system is B4GALT5/6. Description: Quantification of LacCer levels in the CNS (LC-MS/MS). It counts as in vivo, mouse. The note with it: NOD EAE; i.c.v. 1×10^7 IU lentivirus at day 35, 10 days after injection. The method, then:
Chemical standards of LacCer (d18:1/16:0) and LacCer (d18:1/18:0) were obtained from Avanti Polar Lipids. Quantification of LacCer (d18:1/16:0) and LacCer (d18:1/18:0) was achieved by LC-MS/MS analysis performed on an Agilent (Agilent Technologies, Santa Clara, Calif.) 6460 triple-quadrupole LC/MS/MS system. The fragments from the [M+H]^+ ions for LacCer and internal standard were subjected to collision induced dissociation and the two major types of fragment ions were monitored via electrospray ionization in the positive ion mode in multiple reaction monitoring (MRM) mode for each ion. These two MRM transitions corresponded to the loss of the neutral lactosyl moiety, and to the formation of the lactose ion. Specifically, the MRM transitions used for quantification for LacCer (d18:1/16:0) and LacCer(d18:1/18:0) were 862.5>[…] and 890.6>548.5, respectively. Secondary confirmatory MRM transitions for LacCer(d18:1/16:0) and LacCer(d18:1/18:0) of 862.5>264.3 and 890.6>264.3 were also monitored. Mass spectrometer parameter settings were gas temp (325° C.), gas flow (12 L/min), nebulizer (25 psi), sheath gas temp (400° C.), sheath gas flow (12 L/min), capillary voltage (4000v), and nozzle voltage (500v). Liquid chromatography conditions with an a Phenomenex Gemini C18 column 4.6×50 mm 5 μm particle size was used for separation. Chromatography method the following flow rate=0.4 mLs/min; solvent A=5 mM ammonium formate in 5% MeOH and 0.1% formic acid v/v/v; solvent B=80% 2-propanol, 15% methanol, 5% water and 0.1% formic acid (v/v/v/v). […] Standard curve mixture was analyzed at various concentrations between 0.10 nM to 3.3 μM in LacCer (d18:1/16:0) and an internal standard concentration of 1 μM. The lower limit of quantification was estimated at 1 nM and a R^2 of 0.9969 was obtained using linear regression analysis. […]
The brain tissue was weighed and homogenized using a Dounce homogenizer (VWR), in the extraction solvent using a Bligh and Dyer type liquid-liquid extraction. […] The dried sample was reconstituted in 100 μl of 2:1 chloroform-methanol, and analyzed using the HPLC-MS.

In data set [3] the test system is astrocytes. Description: mRNA expression in astrocytes isolated from EAE NOD mice (nCounter, qPCR). The class given is in vivo, mouse. The note with it: NOD EAE; i.c.v. lentivirus at day 35, qPCR. As to the method:
Mononuclear cells were isolated from the CNS as previously described^50 with minor modifications. Naïve and EAE mice were euthanatized, and then subjected to perfusion through the left ventricle with ice-cold sterile PBS. Brains and spinal cord were then removed, minced and enzymatically dissociated with 0.05% (w/v) collagenase type III (Worthington Biochemical), 0.5% Dispase II (Roche Applied Science), 40 μg/ml DNAse I, 20 mM HEPES in HBSS) for 30 min at 37 C to make a suspension of single cells. Enzymes were inactivated with 20 ml of Ca^2+/Mg^2+-free HBSS containing 2 mM EDTA and 20 mM HEPES. The digested tissue was triturated and passed through a […] cell strainer. Cells were centrifuged and resuspended in 30% isotonic Percoll (GE Healthcare) and 40 μg/ml DNAse I, underlined by 70% isotonic Percoll, and centrifuged at 1000×g at 4° C. for 25 min. Cells were collected from the 70%-30% interphase, and sorted by FACS Aria.
These purification procedures are based on previously described dissociation and purification protocols^50,51. Isolated CNS cells, were incubated with anti-Mouse CD16/CD32 for 15 min on ice to block the Fc receptors, and stained with fluorochrome-conjugated antibody for CD11b (M1/70), CD45(90), CD3 (145-2C11), CD4 (GK1.5), and Ly6C (HK1.4), and Biotion-conjugated GSL I—isolectin B4 (Vector labs), CD105 (N418), CD140a (APA5), CD11c (N418), F4/80 (BM8), O4 (O4, Miltenyi Biotec), and CD19 (eBio1D3), and un-conjugated antibodies recognizing mouse MOG (8-18C5, Millipore), O1 (O1), and Galactocerebroside (mGlaC, Millipore). All antibodies were from Ebioscience, unless otherwise mentioned (clone number, when relevant, in parentheses). Cells were washed and incubated PE-conjugated Streptavidin and R-Phycoerythrin AffiniPure F(ab′)2 fragment of Goat Anti-Mouse IgG+IgM (H+L) (Jackson ImmunoResearch laboratories) for 20 min at 4 C in the dark. Cells were washed, incubated with 7-AAD or Fixable Viability Dye eFluor® 450 (if cells were to be used for intracellular staining), for exclusion of dead cells (FIG. S3A), and sorted as following. Microglia were sorted as CD11b^+ cells with low CD45 expression and low Ly6C (CD11b+/CD45^low/Ly6C^low), while the inflammatory monocytes were considered as CD11b^+/Ly6C^high 52. T-cells were sorted as CD3^+CD4^+ cells. Astrocytes were isolated following the depletion of lymphocytes, microglia, monocytes (FIG. S3B), and oligodendrocytes, and lymphocytes (T-cells, B-cells, and NK cells) (FIG. S3C). […] We confirmed that we had isolated a relatively pure populations of astrocytes by qPCR for the astrocyte markers^44,51 gfap, aldh1l1 and aqp4, and found them to be exclusively expressed in the astrocyte fraction (in a similar expression pattern to that of GFP^+ astrocytes sorted from Tg(GFP-hGFAP) FVB transgenic mice^49) (FIG. S3E). We used an additional cohort of markers to explore for presence of immune cells [microglia/monocytes cells—itgam (CD11b), and emr1 (F4/80), dendritic cells—itgax (CD11c), NK cells—Klrb1c (Nk1.1), T-cells—cd3, and B-cells—cd19], oligodendrocytes (mog, mbp), and neurons (syt1, snap25) (FIG. S3F, G).
100-200 ng of total RNA was hybridized with reporter and capture probes for nCounter Gene Expression code sets (Mouse Inflammation Kit, or a custom made astrocyte-oriented probe set (Table S1)), according to manufacturer's instructions (NanoString Technologies). Data were normalized to spiked positive controls and housekeeping genes (nSolver Analysis system). Transcript counts less than the mean of the negative control transcripts plus 2 standard deviations for each sample were considered background.
Nanostring generated gene expression data were analyzed by use of the Expander 6.06 platform^53. Genes were clustered using the unbiased CLICK algorithm, and each cluster was further analyzed for enrichments in transcription factors binding sites (promoter analysis).
(In general: In qPCR the cycle at which signal appears reflects the starting amount.)

Data set [4] has as its system C8-D30 astrocytes. Description: In vitro knock-down with shRNA in C8-D30 astrocytes, LPS/IFNγ activation. The class given is cell-based, mouse. To be noted: lentivirus-delivered shRNA.

As for “shB4galt5: lentivirus-delivered shRNA against b4galt5 (TRCN0000018782; SEQ ID NO:2) (guide GCAGCCTGAATGACTCAGATTCTCGAGAATCTGAGTCATTCAGGCTGC)”, the EAE disease progression result in data set [1] was “but not of b4galt5, suppressed disease progression”. For the same substance, the “CNS LacCer levels” value in data set [2] is reported as “but not of b4galt5, led to a significant decrease of CNS LacCer levels”. The “b4galt6 and b4galt5 expression in astrocytes” value in data set [3] was “astrocyte-specific knock-down”. For the same substance, in data set [4], the “up-regulation of h2-Aa, ccl5 and cxcl10 expression” value is on record as “did not affect the expression”.
